Laboratory results taken from article PMC4802617 (Chinese Medicine, 2016).
Values joined by “and” are separate entries in the source; they are usually repeats but may differ in a detail not shown here. Equal values may be shown once. “Also recorded” adds a separate entry of the source. Where a name gives a salt, the structure may show the parent alone. Read-outs that look alike come from different tables or passages of the source.

Experiments:
human CYP1A2 isoform = settings: specific human CYP1A2 isoform, competitive ref 32; cited from earlier work
CYP2C9 [1] = biological target: T1, CYP2C9 (Homo sapiens, UniProt P11712); settings: cited from earlier work
T1 construct: tissue Cypex Ltd. (UK); host or cells: pooled human liver microsomes, ten donors

CYP1A2 [2] = biological target: T2, CYP1A2 (Homo sapiens, UniProt P05177); design: tissue Cypex Ltd. (UK); host or cells: pooled human liver microsomes, ten donors; settings: CYP1A2, pooled HLMs, competitive ref 32; cited from earlier work
T2 sequence (P05177 1-516): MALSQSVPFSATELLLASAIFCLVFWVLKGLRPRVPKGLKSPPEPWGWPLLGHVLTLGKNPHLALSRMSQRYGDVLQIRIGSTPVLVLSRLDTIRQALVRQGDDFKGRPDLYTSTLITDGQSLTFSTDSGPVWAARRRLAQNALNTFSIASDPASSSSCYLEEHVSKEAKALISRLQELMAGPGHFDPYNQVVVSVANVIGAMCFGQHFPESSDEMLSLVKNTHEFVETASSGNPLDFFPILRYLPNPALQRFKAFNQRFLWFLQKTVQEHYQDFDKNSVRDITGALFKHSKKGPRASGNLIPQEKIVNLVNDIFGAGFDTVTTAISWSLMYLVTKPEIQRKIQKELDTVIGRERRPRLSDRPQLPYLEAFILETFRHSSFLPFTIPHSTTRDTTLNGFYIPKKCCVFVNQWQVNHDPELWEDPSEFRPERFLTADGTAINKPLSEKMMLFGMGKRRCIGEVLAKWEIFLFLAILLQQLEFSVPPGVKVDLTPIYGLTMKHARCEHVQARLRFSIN

CYP2E1 [3] = biological target: T3, CYP2E1 (Homo sapiens, UniProt P05181); settings: CYP2E1 ref 28; read-out: Ki, specific inhibitor/reported values; cited from earlier work
T3 construct: tissue Cypex Ltd. (UK); host or cells: pooled human liver microsomes, ten donors

[4] = Kinetic analysis of STS metabolism by human liver microsomes; format: in vitro ADME
Method: (§1) The CYP isoform-specific probe reactions used were phenacetin O-deethylation (for CYP1A2), coumarin 7-hydroxylation (for CYP2A6), tolbutamide 4-hydroxylation (for CYP2C9), metoprolol α-hydroxylation (for CYP2D6), chlorzoxazone 6-hydroxylation (for CYP2E1), S-mephenytoin 4-hydroxylation (for CYP2C19), and midazolam 1-hydroxylation (for CYP3A4). […] Each reaction was initiated by addition of 1 mg/mL NADPH. The final incubations were performed in a shaking water bath at 37 °C for 30 min. The incubations were performed in triple, and the incubation conditions specific to each CYP isoform were within the linear range for the velocity of the reaction (incubation time as well as substrate and protein concentrations). […] The reactions were stopped by adding 0.2 mL of ice-cold acetonitrile containing irbesartan (114.9 ng/mL) as the internal standard. The samples were vortexed for 5 min. After centrifugation (5415D centrifuge, Eppendorf, Germany) (12,000×g for 10 min), the supernatants were transferred and aliquots of 20 µL were injected into the HPLC–MS/MS system for analysis.
The incubation conditions consisted of substrate probe, HLMs (0.5 mg/mL) or CYP isoforms (10 pmol), and 0.1 M sodium phosphate buffer (pH 7.4) in a total volume of 0.2 mL. […] All values were expressed as the mean ± standard deviation (SD). The mean intrinsic clearance rate (CLint) for the in vitro incubation was estimated by Vmax/Km.
(§2) Values of P < 0.05 denoted significance in all cases. […] The activity of each CYP isoform was calculated by the MCR of its corresponding probe substrate to determine the inhibition of the CYP isoforms. […] The IC50 values were determined by analyzing the plot of the logarithm of the inhibitor concentration versus the percentage of activity remaining after inhibition, using the SPSS for Windows Version 11.5 (SPSS Inc., USA). The inhibition data were fitted to different models of enzyme inhibition (competitive, noncompetitive, and uncompetitive) by nonlinear least-squares regression analysis using GraphPad Prism 5 software (GraphPad Co. Ltd., USA) to calculate the Ki values.

CYP3A4 [5] = biological target: T4, CYP3A4 (Homo sapiens, UniProt P08684); assay: Kinetic analysis of STS metabolism by recombinant CYP3A4; format: in vitro ADME
Method: The CYP isoform-specific probe reactions used were phenacetin O-deethylation (for CYP1A2), coumarin 7-hydroxylation (for CYP2A6), tolbutamide 4-hydroxylation (for CYP2C9), metoprolol α-hydroxylation (for CYP2D6), chlorzoxazone 6-hydroxylation (for CYP2E1), S-mephenytoin 4-hydroxylation (for CYP2C19), and midazolam 1-hydroxylation (for CYP3A4). […] Each reaction was initiated by addition of 1 mg/mL NADPH. The final incubations were performed in a shaking water bath at 37 °C for 30 min. The incubations were performed in triple, and the incubation conditions specific to each CYP isoform were within the linear range for the velocity of the reaction (incubation time as well as substrate and protein concentrations). […]
The incubation conditions consisted of substrate probe, HLMs (0.5 mg/mL) or CYP isoforms (10 pmol), and 0.1 M sodium phosphate buffer (pH 7.4) in a total volume of 0.2 mL. […] All values were expressed as the mean ± standard deviation (SD). […]
(§3) Values of P < 0.05 denoted significance in all cases. […] The activity of each CYP isoform was calculated by the MCR of its corresponding probe substrate to determine the inhibition of the CYP isoforms. […] The IC50 values were determined by analyzing the plot of the logarithm of the inhibitor concentration versus the percentage of activity remaining after inhibition, using the SPSS for Windows Version 11.5 (SPSS Inc., USA). […]

CYP2A6 = biological target: T5, CYP2A6 (Homo sapiens, UniProt P11509); assay: Inhibition of coumarin 7-hydroxylation in HLMs; format: in vitro ADME
T5 construct: tissue Cypex Ltd. (UK); host or cells: pooled human liver microsomes, ten donors
T5 sequence (P11509 1-494): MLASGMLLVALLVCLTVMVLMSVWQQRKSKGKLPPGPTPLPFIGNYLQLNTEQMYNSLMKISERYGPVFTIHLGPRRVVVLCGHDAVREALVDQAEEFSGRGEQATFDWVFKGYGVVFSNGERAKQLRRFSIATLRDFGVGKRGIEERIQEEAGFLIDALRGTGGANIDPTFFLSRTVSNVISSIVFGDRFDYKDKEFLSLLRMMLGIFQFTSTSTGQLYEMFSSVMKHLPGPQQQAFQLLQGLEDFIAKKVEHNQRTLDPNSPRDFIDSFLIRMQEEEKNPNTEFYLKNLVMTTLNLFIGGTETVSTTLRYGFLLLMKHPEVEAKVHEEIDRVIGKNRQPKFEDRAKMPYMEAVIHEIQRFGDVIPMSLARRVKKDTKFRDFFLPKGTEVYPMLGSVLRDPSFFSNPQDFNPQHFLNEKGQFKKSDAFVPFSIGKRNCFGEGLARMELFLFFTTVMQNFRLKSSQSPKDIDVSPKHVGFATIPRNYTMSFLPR
Method: as §1
(§4) A pilot inhibitory analysis of each CYP isoform was performed to determine the potency of inhibition and to select CYP isoforms for further detailed study of their inhibitory activities. […] The substrates comprising phenacetin, coumarin, tolbutamide, metoprolol, chlorzoxazone, S-mephenytoin, and midazolam were employed at concentrations of 10, 5, 100, 7.5, 40, 100, and 5 µM, respectively. All incubation conditions were the same as those described above.
as §3

CYP2C9 [6] = biological target: T1, CYP2C9; assay: Inhibition of tolbutamide 4-hydroxylation in HLMs; format: in vitro ADME
Method: as §1, §4, §3

CYP2D6 = biological target: T6, CYP2D6 (Homo sapiens, UniProt P10635); assay: Inhibition of metoprolol α-hydroxylation in HLMs; format: in vitro ADME
T6 construct: tissue Cypex Ltd. (UK); host or cells: pooled human liver microsomes, ten donors
Method: as §1, §4, §3

CYP2E1 [7] = biological target: T3, CYP2E1; assay: Inhibition of chlorzoxazone 6-hydroxylation in HLMs; format: in vitro ADME
Method: as §1, §4, §3

CYP2C19 = biological target: T7, CYP2C19 (Homo sapiens, UniProt P33261); assay: Inhibition of S-mephenytoin 4-hydroxylation in HLMs; format: in vitro ADME
T7 construct: tissue Cypex Ltd. (UK); host or cells: pooled human liver microsomes, ten donors
Method: as §1, §4, §3

[8] = Effects of specific CYP inhibitors on metabolic clearance rate (MCR) of STS in HLMs; format: in vitro ADME, human; settings: STS 10 µM, in the presence of KET 1 µM
CYP3A4 [9] = biological target: T4, CYP3A4; assay: MCR of STS with recombinant CYP3A4 under inhibition by KET; format: in vitro ADME; settings: KET 1 µM
[10] = rats, cited from earlier work
[11] = rats, intravenous 2 mg/kg, cited from earlier work
CYP1A2 [12] = biological target: T2, CYP1A2; settings: in vivo; cited from earlier work
CYP1A2 [13] = biological target: T2, CYP1A2; assay: Inhibition of phenacetin O-deethylation in HLMs; format: in vitro ADME; design: tissue Cypex Ltd. (UK); host or cells: pooled human liver microsomes, ten donors
Method: as §1, §4, §3

CYP3A4 [14] = biological target: T4, CYP3A4; assay: Inhibition of midazolam 1-hydroxylation in HLMs (IC50, Ki, Dixon plots); format: in vitro ADME; design: tissue Cypex Ltd. (UK); host or cells: pooled human liver microsomes, ten donors
Method: as §1, §4
Therefore, Dixon plots for the inhibition of CYP3A4 were determined by incubating the substrate probe at multiple concentrations with or without the test inhibitor at multiple concentrations with the HLMs and cofactors. The inhibition data obtained from the pilot experiments were used as a guide to generate appropriate probe substrate and test inhibitor concentrations for determination of the Ki values for each CYP isoform. The isoform-specific probe substrate concentrations used were 5–50 µM midazolam for CYP3A4.
as §2

[15] = classification of Kong et al., read-out: potency class of inhibitor by IC50

T1 sequence (P11712 whole entry): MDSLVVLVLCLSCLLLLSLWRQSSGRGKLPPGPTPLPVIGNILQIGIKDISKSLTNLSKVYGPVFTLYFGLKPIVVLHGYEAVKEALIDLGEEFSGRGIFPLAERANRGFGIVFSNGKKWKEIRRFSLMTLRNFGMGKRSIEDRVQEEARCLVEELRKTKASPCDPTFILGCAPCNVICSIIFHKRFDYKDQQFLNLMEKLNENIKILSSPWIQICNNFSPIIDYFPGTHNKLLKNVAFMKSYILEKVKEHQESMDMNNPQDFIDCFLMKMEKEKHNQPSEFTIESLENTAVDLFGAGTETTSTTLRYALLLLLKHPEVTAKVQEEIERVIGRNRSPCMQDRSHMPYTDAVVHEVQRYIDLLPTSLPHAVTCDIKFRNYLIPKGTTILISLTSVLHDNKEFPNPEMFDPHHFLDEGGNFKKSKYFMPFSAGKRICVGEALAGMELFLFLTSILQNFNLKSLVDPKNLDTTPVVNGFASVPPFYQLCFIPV
T7 sequence (P33261 whole entry): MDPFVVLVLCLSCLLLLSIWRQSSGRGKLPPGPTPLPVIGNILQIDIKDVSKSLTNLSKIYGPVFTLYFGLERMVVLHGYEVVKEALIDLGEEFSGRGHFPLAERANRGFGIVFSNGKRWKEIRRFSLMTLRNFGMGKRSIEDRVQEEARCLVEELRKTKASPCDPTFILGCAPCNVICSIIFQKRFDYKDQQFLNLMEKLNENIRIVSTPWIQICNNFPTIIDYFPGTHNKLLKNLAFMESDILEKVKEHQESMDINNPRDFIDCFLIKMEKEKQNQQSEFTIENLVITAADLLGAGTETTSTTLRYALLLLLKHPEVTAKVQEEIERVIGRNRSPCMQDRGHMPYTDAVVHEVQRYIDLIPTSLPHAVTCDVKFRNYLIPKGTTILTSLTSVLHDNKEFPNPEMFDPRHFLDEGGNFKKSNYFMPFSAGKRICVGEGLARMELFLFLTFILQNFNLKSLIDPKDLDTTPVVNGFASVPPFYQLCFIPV
T6 sequence (P10635 whole entry): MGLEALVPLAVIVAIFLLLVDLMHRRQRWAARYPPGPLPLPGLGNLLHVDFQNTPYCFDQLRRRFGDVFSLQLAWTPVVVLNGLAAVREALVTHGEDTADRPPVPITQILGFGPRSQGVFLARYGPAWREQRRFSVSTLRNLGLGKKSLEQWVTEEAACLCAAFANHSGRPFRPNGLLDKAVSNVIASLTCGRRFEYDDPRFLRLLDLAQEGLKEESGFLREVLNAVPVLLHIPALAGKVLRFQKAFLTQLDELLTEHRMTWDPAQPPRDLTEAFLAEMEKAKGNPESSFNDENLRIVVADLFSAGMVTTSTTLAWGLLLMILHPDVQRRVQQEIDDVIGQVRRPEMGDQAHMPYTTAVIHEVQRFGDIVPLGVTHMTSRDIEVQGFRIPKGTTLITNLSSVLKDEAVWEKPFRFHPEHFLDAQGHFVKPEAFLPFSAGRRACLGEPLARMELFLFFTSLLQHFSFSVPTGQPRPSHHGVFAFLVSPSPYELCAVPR
T3 sequence (P05181 whole entry): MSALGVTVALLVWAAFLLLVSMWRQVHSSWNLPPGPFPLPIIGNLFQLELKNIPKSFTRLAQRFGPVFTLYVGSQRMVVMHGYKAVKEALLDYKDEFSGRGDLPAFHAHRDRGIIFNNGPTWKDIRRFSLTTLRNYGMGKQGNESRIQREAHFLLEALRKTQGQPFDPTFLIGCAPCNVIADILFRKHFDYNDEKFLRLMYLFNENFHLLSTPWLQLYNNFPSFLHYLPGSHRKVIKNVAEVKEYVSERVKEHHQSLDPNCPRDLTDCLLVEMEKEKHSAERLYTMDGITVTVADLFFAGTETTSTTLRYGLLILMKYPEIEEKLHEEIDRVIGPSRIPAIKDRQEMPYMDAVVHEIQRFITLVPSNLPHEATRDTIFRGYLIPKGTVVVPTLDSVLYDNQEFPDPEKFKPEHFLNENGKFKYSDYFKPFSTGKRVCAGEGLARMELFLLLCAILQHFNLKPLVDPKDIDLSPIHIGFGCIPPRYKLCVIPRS
T4 sequence (P08684 whole entry, canonical isoform): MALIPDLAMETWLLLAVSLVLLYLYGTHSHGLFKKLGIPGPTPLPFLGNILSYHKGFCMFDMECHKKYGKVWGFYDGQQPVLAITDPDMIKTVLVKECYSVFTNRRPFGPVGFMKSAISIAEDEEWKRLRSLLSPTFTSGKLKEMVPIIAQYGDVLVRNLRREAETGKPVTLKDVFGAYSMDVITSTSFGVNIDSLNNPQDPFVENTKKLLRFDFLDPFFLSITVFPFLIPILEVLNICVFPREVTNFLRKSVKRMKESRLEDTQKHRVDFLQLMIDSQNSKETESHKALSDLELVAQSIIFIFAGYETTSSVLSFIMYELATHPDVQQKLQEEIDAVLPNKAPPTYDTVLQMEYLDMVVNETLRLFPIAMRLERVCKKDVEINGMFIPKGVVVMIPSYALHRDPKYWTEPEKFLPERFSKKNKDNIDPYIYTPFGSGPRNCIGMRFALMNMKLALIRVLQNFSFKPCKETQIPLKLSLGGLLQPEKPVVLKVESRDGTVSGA

Cc1coc2c1C(=O)C(=O)c1c-2ccc2c1CCCC2(C)C [tanshinone IIA]
Ki (human CYP1A2 isoform): 50 nM
inhibition of CYP2C9 (CYP2C9 [1]): medium competitive inhibitor
Ki (CYP1A2 [2]): 1450 nM

Cc1ncsc1CCCl [CHL, chlormethiazole hydrochloride]
Ki (CYP2E1 [3]): 12 µM

Cc1c(S(=O)(=O)O)oc2c1C(=O)C(=O)c1c-2ccc2c1CCCC2(C)C [STS, sodium tanshinone IIA sulfonate]
Vmax ([4]; Fig. 2a, human liver microsomes): 0.9
Vmax ([4]; STS metabolism, HLMs 0.5 mg/mL, mean ± SD): 0.9 ± 0.1 nmol/mg protein/min
Km ([4]; human, human liver microsomes, pH 7.4): 54.8 ± 14.6 µM
microsomal CLint ([4]; human, human liver microsomes, pH 7.4, read-out: in vitro CLint): 16 µL/min/mg
Vmax (CYP3A4 [5]; Fig. 2b, CYP3A4, printed in picture): 6.8
in vitro CLint (CYP3A4 [5]; STS with CYP3A4, Vmax/Km): 0.902 mL/nmol P450/min
inhibitory effect on CYP2A6 activity (CYP2A6; STS 1–100 µM, HLMs): minimal; also recorded: negligible
IC50 (CYP2A6; STS 1–100 µM, coumarin 5 µM, HLMs, read-out: IC50): > 100 µM
IC50 (CYP2A6; [15]): ≥ 50 µM
inhibitory effect on CYP2C9 activity (CYP2C9 [6]; STS 1–100 µM, HLMs): minimal; also recorded: negligible
IC50 (CYP2C9 [6]; STS 1–100 µM, tolbutamide 100 µM, HLMs, read-out: IC50): > 100 µM
IC50 (CYP2C9 [6]; [15]): ≥ 50 µM
inhibitory effect on CYP2D6 activity (CYP2D6; STS 1–100 µM, HLMs): minimal; also recorded: negligible
IC50 (CYP2D6; STS 1–100 µM, metoprolol […], HLMs, read-out: IC50): > 100 µM
IC50 (CYP2D6; [15]): ≥ 50 µM
inhibitory effect on CYP2E1 activity (CYP2E1 [7]; STS 1–100 µM, HLMs): minimal; also recorded: negligible
IC50 (CYP2E1 [7]; STS 1–100 µM, chlorzoxazone 40 µM, HLMs, read-out: IC50): > 100 µM
IC50 (CYP2E1 [7]; [15]): ≥ 50 µM
inhibitory effect on CYP2C19 activity (CYP2C19; STS 1–100 µM, HLMs): minimal; also recorded: negligible
IC50 (CYP2C19; STS 1–100 µM, S-mephenytoin 100 µM, HLMs, read-out: IC50): > 100 µM
IC50 (CYP2C19; [15]): ≥ 50 µM
MCR of STS, of control [8]: 37.4%
MCR of STS, of control value (CYP3A4 [9]; recombinant CYP3A4, STS 10 µM): 58.4%
MCR of STS, of control value (CYP3A4 [9]; recombinant CYP3A4, STS 50 µM): 29.4%
plasma concentration ([10]; 4 h after the injection ref 15, 16): ≤ 20 ng/mL
t1/2 ([10]; after injection ref 15, 16): < 54 min
maximal STS concentration in liver ([11]; 5 min after administration ref 15, 16): > 10 µg/mL
detection in other tissues ([11]; 2 h after administration, other tissues ref 15, 16): hardly detected
time after administration at which STS could be determined ([11]; kidney ref 15, 16): 4 h
time after administration at which STS could be determined ([11]; liver ref 15, 16): 12 h
increase of CYP1A2 activity (CYP1A2 [12]): 41.1%
inhibitory effect on CYP1A2 activity (CYP1A2 [13]; STS 1–100 µM, HLMs): minimal; also recorded: negligible; also recorded: not an inhibitor
IC50 (CYP1A2 [13]; STS 1–100 µM, phenacetin 10 µM, HLMs, read-out: IC50): > 100 µM
IC50 (CYP1A2 [13]; [15]): ≥ 50 µM
Ki fold higher than that of KET (CYP3A4 [14]; HLMs, versus reported KET value): approximately 212 fold
IC50 (CYP3A4 [14]; STS 1–100 µM, midazolam 5 µM, HLMs, brackets = 95 % confidence interval, read-out: IC50): 6.4 µM and 6.38 µM
IC50 (CYP3A4 [14]; [15]): ≤ 10 µM
type of inhibition (CYP3A4 [14]; midazolam 1-hydroxylation in HLMs, Dixon / Lineweaver–Burk plots): competitive type of inhibition; also recorded: full competitive inhibition
IC50 fold higher than that of KET (CYP3A4 [14]; midazolam 1-hydroxylation, HLMs, versus reported KET values): 26.6–79.7 fold
Ki (CYP3A4 [14]; midazolam 5–50 µM, STS 0–100 µM, HLMs, competitive model, brackets = 95 % confidence interval): 3.18 µM
